{"source": "patent US8039493B2", "about": "“Biaryl sulfonamide derivatives” (Hoffmann-La Roche Inc., priority 2008, dated 2011)", "key": {"human LXR alpha": {"molecular_target": "T1, human LXR alpha (Homo sapiens, UniProt Q13133)", "T1 construct": "human LXR alpha (aa 164 to 447); made in house; host or cells: E. coli BL21 (pLysS)", "T1 sequence (Q13133 164-447)": "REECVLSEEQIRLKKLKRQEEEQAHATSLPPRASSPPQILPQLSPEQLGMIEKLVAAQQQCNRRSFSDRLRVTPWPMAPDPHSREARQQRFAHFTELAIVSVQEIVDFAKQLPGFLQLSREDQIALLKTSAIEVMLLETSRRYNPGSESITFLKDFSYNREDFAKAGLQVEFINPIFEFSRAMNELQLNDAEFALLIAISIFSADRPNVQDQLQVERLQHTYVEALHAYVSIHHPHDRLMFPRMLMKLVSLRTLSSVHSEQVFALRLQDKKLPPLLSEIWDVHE", "assay": "Radioligand binding assay (scintillation proximity), LXRα-LBD", "details": "LXRα-LBD on SPA beads, read-out: LXRalpha Binding IC50", "procedure": "(§1) The following tests were carried out in order to determine the activity of the compounds of the present invention. […] Mammalian expression vectors were constructed to express full-length human LXR alpha and LXR beta. […] To accomplish this, the portions of the sequences encoding the LBDs were amplified from the full-length clones by PCR and then subcloned into the plasmid vectors.\n(§2) Induction, expression, and purification of LBD proteins were performed in E. coli strain BL21 (pLysS) cells by standard methods (Ref: Current Protocols in Molecular Biology, Wiley Press, edited by Ausubel et al).\n(§3) Radioligand Binding Assay\n(§4) LXR alpha and LXR beta receptor binding were assayed in buffer consisting of 50 mM HEPES, pH 7.4, 10 mM NaCl, 5 mM MgCl2. For each 96-well reaction, 500 ng of LXRα-LBD or 700 ng of LXR beta-LBD proteins were bound to 80 μg or 40 μg SPA beads respectively, in a final volume of 50 μl by shaking. The resulting slurry was incubated for 1 h at RT and centrifuged for 2 min at 1300×g. The supernatant containing unbound protein was removed, and the semi-dry pellet containing the receptor-coated beads was re-suspended in 50 μl of buffer. Radioligand (eg. 100,000 dpm of (N-(2,2,2-trifluoroethyl)-N-[4-(2,2,2-trifluoro-1-hydroxy-1-trifluoromethylethyl)-phenyl]-benzenesulfonamide)) was added, and the reaction incubated at RT for 1 h in the presence of test compounds, and then scintillation proximity counting was performed. All binding assays were performed in 96-well plates and the amount of bound ligand was measured on a Packard TopCount using OptiPlates (Packard). Dose response curves were measured within a range of concentration from 10^−10 M to 10^−4 M."}, "human LXR beta": {"molecular_target": "T2, human LXR beta (Homo sapiens, UniProt P55055)", "T2 construct": "human LXR beta (aa 155 to 460); made in house; host or cells: E. coli BL21 (pLysS)", "T2 sequence (P55055 155-460)": "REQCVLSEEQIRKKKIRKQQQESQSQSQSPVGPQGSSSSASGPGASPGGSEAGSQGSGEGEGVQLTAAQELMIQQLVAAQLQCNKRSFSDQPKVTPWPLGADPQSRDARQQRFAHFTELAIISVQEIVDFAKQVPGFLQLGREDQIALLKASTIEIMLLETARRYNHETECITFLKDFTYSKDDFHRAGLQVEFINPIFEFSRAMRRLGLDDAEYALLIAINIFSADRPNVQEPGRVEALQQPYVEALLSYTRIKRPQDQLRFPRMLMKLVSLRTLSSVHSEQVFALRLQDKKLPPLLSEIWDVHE", "assay": "Radioligand binding assay (scintillation proximity), LXR beta-LBD", "details": "LXR beta-LBD on SPA beads, read-out: LXRbeta Binding IC50", "procedure": "as §1, §2, §3, §4"}}}
{"compound": "CN(Cc1ccc(-c2cccc(S(C)(=O)=O)c2)s1)S(=O)(=O)c1ccccc1C(F)(F)F", "note": "[Example 27, N-[5-(3-Methanesulfonyl-phenyl)-thiophen-2-ylmethyl]-N-methyl-2-trifluoromethyl-benzenesulfonamide]", "values": [{"measurement": "IC50", "setting": "human LXR alpha", "result": 29.2, "unit": "µM"}, {"measurement": "IC50", "setting": "human LXR beta", "result": 2.61, "unit": "µM"}]}
{"compound": "CCN(Cc1ccc(-c2cccc(S(C)(=O)=O)c2)s1)S(=O)(=O)c1ccccc1C(F)(F)F", "note": "[Example 28, N-Ethyl-N-[5-(3-methanesulfonyl-phenyl)-thiophen-2-ylmethyl]-2-trifluoromethyl-benzenesulfonamide]", "values": [{"measurement": "IC50", "setting": "human LXR alpha", "result": 19.9, "unit": "µM"}, {"measurement": "IC50", "setting": "human LXR beta", "result": 0.44, "unit": "µM"}]}
{"compound": "CCCN(Cc1ccc(-c2cccc(S(C)(=O)=O)c2)s1)S(=O)(=O)c1ccccc1C(F)(F)F", "note": "[Example 29, N-[5-(3-Methanesulfonyl-phenyl)-thiophen-2-ylmethyl]-N-propyl-2-trifluoromethyl-benzenesulfonamide]", "values": [{"measurement": "IC50", "setting": "human LXR alpha", "result": 2.46, "unit": "µM"}, {"measurement": "IC50", "setting": "human LXR beta", "result": 0.104, "unit": "µM"}]}
{"compound": "CC(C)N(Cc1ccc(-c2cccc(S(C)(=O)=O)c2)s1)S(=O)(=O)c1ccccc1C(F)(F)F", "note": "[Example 30, N-Isopropyl-N-[5-(3-methanesulfonyl-phenyl)-thiophen-2-ylmethyl]-2-trifluoromethyl-benzenesulfonamide]", "values": [{"measurement": "IC50", "setting": "human LXR alpha", "result": 7.86, "unit": "µM"}, {"measurement": "IC50", "setting": "human LXR beta", "result": 0.47, "unit": "µM"}]}
{"compound": "CC(C)CN(Cc1ccc(-c2cccc(S(C)(=O)=O)c2)s1)S(=O)(=O)c1ccccc1C(F)(F)F", "note": "[Example 31, N-Isobutyl-N-[5-(3-methanesulfonyl-phenyl)-thiophen-2-ylmethyl]-2-trifluoromethyl-benzenesulfonamide]", "values": [{"measurement": "IC50", "setting": "human LXR alpha", "result": 1.46, "unit": "µM"}, {"measurement": "IC50", "setting": "human LXR beta", "result": 0.085, "unit": "µM"}]}
{"compound": "CS(=O)(=O)c1cccc(-c2ccc(CN(CC3CC3)S(=O)(=O)c3ccccc3C(F)(F)F)s2)c1", "note": "[Example 32, N-Cyclopropylmethyl-N-[5-(3-methanesulfonyl-phenyl)-thiophen-2-ylmethyl]-2-trifluoromethyl-benzenesulfonamide]", "values": [{"measurement": "IC50", "setting": "human LXR alpha", "result": 0.845, "unit": "µM"}, {"measurement": "IC50", "setting": "human LXR beta", "result": 0.106, "unit": "µM"}]}
{"compound": "CS(=O)(=O)c1cccc(-c2ccc(CN(Cc3ccccc3F)S(=O)(=O)c3ccccc3C(F)(F)F)s2)c1", "note": "[Example 33, N-(2-Fluoro-benzyl)-N-[5-(3-methanesulfonyl-phenyl)-thiophen-2-ylmethyl]-2-trifluoromethyl-benzenesulfonamide]", "values": [{"measurement": "IC50", "setting": "human LXR alpha", "result": 0.0135, "unit": "µM"}, {"measurement": "IC50", "setting": "human LXR beta", "result": 0.0066, "unit": "µM"}]}
{"compound": "Cc1noc(C)c1CN(Cc1ccc(-c2cccc(S(C)(=O)=O)c2)s1)S(=O)(=O)c1ccccc1C(F)(F)F", "note": "[Example 34, N-(3,5-Dimethyl-isoxazol-4-ylmethyl)-N-[5-(3-methanesulfonyl-phenyl)-thiophen-2-ylmethyl]-2-trifluoromethyl-benzenesulfonamide]", "values": [{"measurement": "IC50", "setting": "human LXR alpha", "result": 0.0605, "unit": "µM"}, {"measurement": "IC50", "setting": "human LXR beta", "result": 0.083, "unit": "µM"}]}
{"compound": "COCCN(Cc1ccc(-c2cccc(S(C)(=O)=O)c2)s1)S(=O)(=O)c1ccccc1C(F)(F)F", "note": "[Example 35, N-[5-(3-Methanesulfonyl-phenyl)-thiophen-2-ylmethyl]-N-(2-methoxy-ethyl)-2-trifluoromethyl-benzenesulfonamide]", "values": [{"measurement": "IC50", "setting": "human LXR alpha", "result": 0.975, "unit": "µM"}, {"measurement": "IC50", "setting": "human LXR beta", "result": 0.116, "unit": "µM"}]}
{"compound": "CS(=O)(=O)c1cccc(-c2ccc(CN(CC3CCC3)S(=O)(=O)c3ccccc3C(F)(F)F)s2)c1", "note": "[Example 36, N-Cyclobutylmethyl-N-[5-(3-methanesulfonyl-phenyl)-thiophen-2-ylmethyl]-2-trifluoromethyl-benzenesulfonamide]", "values": [{"measurement": "IC50", "setting": "human LXR alpha", "result": 0.665, "unit": "µM"}, {"measurement": "IC50", "setting": "human LXR beta", "result": 0.0175, "unit": "µM"}]}
{"compound": "CC(C)(C)OC(=O)CN(Cc1ccc(-c2cccc(S(C)(=O)=O)c2)s1)S(=O)(=O)c1ccccc1C(F)(F)F", "note": "[Example 37, [[5-(3-Methanesulfonyl-phenyl)-thiophen-2-ylmethyl]-(2-trifluoromethyl-benzenesulfonyl)-amino]-acetic acid tert-butyl ester]", "values": [{"measurement": "IC50", "setting": "human LXR alpha", "result": 0.0175, "unit": "µM"}, {"measurement": "IC50", "setting": "human LXR beta", "result": 0.0115, "unit": "µM"}]}
{"compound": "CCN(CC)C(=O)CN(Cc1ccc(-c2cccc(S(C)(=O)=O)c2)s1)S(=O)(=O)c1ccccc1C(F)(F)F", "note": "[Example 38, N,N-Diethyl-2-[[5-(3-methanesulfonyl-phenyl)-thiophen-2-ylmethyl]-(2-trifluoromethyl-benzenesulfonyl)-amino]-acetamide]", "values": [{"measurement": "IC50", "setting": "human LXR alpha", "result": 2.41, "unit": "µM"}, {"measurement": "IC50", "setting": "human LXR beta", "result": 0.16, "unit": "µM"}]}
